# Results reported in article PMC12150283, “Synthesis of new Ag(I) and Cd(II) hydrozanomide-based complexes with antibacterial and anticancer properties” (RSC Advances, 2025).
# What was measured:
# B. subtilis ATCC 6633 = test: Diffusion-well method, inhibition zones; type: cell-based, Bacillus subtilis; details: 500 µg/mL, wells 10 mm
# Description: (§1) The antibacterial activity of tested samples was assessed against both gram-positive bacteria (Staphylococcus aureus ATCC 25923, Staphylococcus aureus ATCC 6538, Staphylococcus epidermidis ATCC 12228, Enterococcus faecalis ATCC 29212, Listeria monocytogenes ATCC 19115, Bacillus subtilis ATCC 6633, Bacillus cereus ATCC 10876) and gram-negative bacteria (Escherichia coli ATCC 10530, Salmonella typhimurium ATCC 14028). Antibacterial properties were evaluated using both the dilution method (employing DMSO and 96-well plates) and the diffusion-well method (using Mueller Hinton Agar, Merck, Germany).
# (§2) 24 hour bacterial cultures with a density of 1–2 × 10^8 CFU mL^−1 were plated (0.1 mL) on Mueller–Hinton Agar (Merck, Germany). Subsequently, wells with a diameter of 10 mm were cut out from and filled with 100 μL of the tested compound at a concentration of 10–500 μg mL^−1 (diluted in DMSO). After an 18-hour incubation at either 30 °C (for Bacillus ssp.) or 37 °C (for other tested microorganisms), the inhibition zones around the wells were measured, and the results were expressed in millimetres (Table S9 ^†).
# E. faecalis ATCC 29212 = test: Diffusion-well method, inhibition zones; type: cell-based, Enterococcus faecalis; details: 500 µg/mL, wells 10 mm
# Description: as §1, §2
# [1] = Time-dependent UV-vis solution stability in DMSO; type: physicochemical; details: 0 min to 48 h, room temperature
# Text: The stability of metal complexes is a crucial property that provides insight into their interactions with biological molecules, as it directly impacts their reactivity, bioavailability, and effectiveness in therapeutic applications. Additionally, the solubility of these complexes in dimethyl sulfoxide (DMSO) is of considerable importance, as solubility data are essential for optimizing storage conditions and ensuring compatibility with biological assays.[39] DMSO, a widely used solvent in drug discovery, serves as a medium that supports the stability and bioavailability of complexes under assay conditions, which is critical for maintaining the integrity of analytical protocols and enabling accurate assessments of biological activity. For the obtained complexes, the time-dependent UV-vis investigations in DMSO (Fig. 5 and S9 ^†) were carried out from 0 min to 48 h (0 min, 30 min, 1 h, 2 h, 3 h, 24 h, 48 h).
# The sample solutions (50 μL (1.0 × 10^−3 M)) of the complexes were prepared in DMSO (Sigma Aldrich, ≥99.9%). The absorption spectra of the complexes were measured with increasing time (0 min, 30 min, 60 min, 2 h, 3 h, 24 h, 48 h) at room temperature. All measurements were performed on the Shimadzu UV-2401PC.
# B. cereus ŁOCK 0807 = test: Diffusion-well method, inhibition zones; type: cell-based, Bacillus cereus; details: 500 µg/mL, wells 10 mm
# E. coli ATCC 10530 = test: Diffusion-well method, inhibition zones; type: cell-based, Escherichia coli; details: 500 µg/mL, wells 10 mm
# Description: as §1, §2
compound,measurement,setting,value
"NC(=NN=Cc1ccccc1)c1cncc(Cl)n1.O.O=[N+]([O-])[O-].[Ag+] [Complex 1, AgL1NO3 × H2O]",Inhibition zone,B. subtilis ATCC 6633,17 mm
same,Inhibition zone,E. faecalis ATCC 29212,17 mm
same,hypochromic effect,[1],0.84%
same,Inhibition zone,B. cereus ŁOCK 0807,17 mm
same,Inhibition zone,E. coli ATCC 10530,20 mm
